Results taken from the supplement of paper PMC4862054.
Several values for one entry are separate records, joined by “and”; a condition that tells them apart may be missing. Equal values may be shown once.

Tests used:
Conditions in all cases: incubation time: 72 h
MDA-MB-453 [1] = assay: drug sensitivity score (DSS), CellTiter-Glo (DSS (AUC-based score)); higher = stronger drug effect (viability inhibition or cytotoxicity); extreme values may be limits of the assay
Method in brief: (§1)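 Breast cancer cell lines, seeded as 20 µl suspension, were incubated 72 h with compound in 384-well plates at 5 concentrations in 10-fold steps over a 10,000-fold range set for each compound. Fluorescence from CellTox Green was read at 485/520 nm before CellTiter-Glo luminescence, which was read after 10 min at room temperature. Every plate was normalised to 0.1 % DMSO and a positive kill control, and the drug sensitivity score was taken from the area under the fitted dose-response curve.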

MCF-10A = assay: as above
Method in brief: as §1

MFM-223 [2] = assay: as above
Method in brief: as §1

CAL-51 = assay: as above
Method in brief: as §1

DU-4475 [3] = assay: as above
Method in brief: as §1

HDQ-P1 [4] = assay: as above
Method in brief: as §1

CAL-120 [5] = assay: as above
Method in brief: as §1

BT-474 = assay: as above
Method in brief: as §1

HCC1143 = assay: as above
Method in brief: as §1

HCC1599 [6] = assay: as above
Method in brief: as §1

Hs578T [7] = assay: as above
Method in brief: as §1

CAL-148 [8] = assay: as above
Method in brief: as §1

CAL-85-1 [9] = assay: as above
Method in brief: as §1

MDA-MB-468 [10] = assay: as above
Method in brief: as §1

MDA-MB-436 = assay: as above
Method in brief: as §1

MDA-MB-453 [11] = assay: drug sensitivity score (DSS), CellTiter-Blue viability (DSS (AUC-based score)); higher = stronger viability inhibition; extreme values may be limits of the assay
Method in brief: (§2)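 Into 384-well plates carrying compound in a 5- or 9-concentration series went 20 µl of breast cancer cell suspension, followed by 72 h of incubation. Adding 2.5 µl CellTiter-Blue per well and incubating 2 h at 37 °C preceded fluorescence measurement at 560/590 nm. After normalisation of each plate to 0.1 % DMSO and a positive kill control, dose-response curves were fitted and the area beneath them taken as the drug sensitivity score.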

MFM-223 [12] = assay: as above
Method in brief: as §2

DU-4475 [13] = assay: as above
Method in brief: as §2

HDQ-P1 [14] = assay: as above
Method in brief: as §2

CAL-120 [15] = assay: as above
Method in brief: as §2

HCC1599 [16] = assay: as above
Method in brief: as §2

SK-BR-3 = assay: as above
Method in brief: as §2

Hs578T [17] = assay: as above
Method in brief: as §2

CAL-148 [18] = assay: as above
Method in brief: as §2

CAL-85-1 [19] = assay: as above
Method in brief: as §2

MDA-MB-468 [20] = assay: as above
Method in brief: as §2

| SMILES | drug sensitivity score (MDA-MB-453 [1]) | drug sensitivity score (MCF-10A) | drug sensitivity score (MFM-223 [2]) | drug sensitivity score (CAL-51) | drug sensitivity score (DU-4475 [3]) | drug sensitivity score (HDQ-P1 [4]) | drug sensitivity score (CAL-120 [5]) | drug sensitivity score (BT-474) | drug sensitivity score (HCC1143) | drug sensitivity score (HCC1599 [6]) | drug sensitivity score (Hs578T [7]) | drug sensitivity score (CAL-148 [8]) | drug sensitivity score (CAL-85-1 [9]) | drug sensitivity score (MDA-MB-468 [10]) | drug sensitivity score (MDA-MB-436) | drug sensitivity score (MDA-MB-453 [11]) | drug sensitivity score (MFM-223 [12]) | drug sensitivity score (DU-4475 [13]) | drug sensitivity score (HDQ-P1 [14]) | drug sensitivity score (CAL-120 [15]) | drug sensitivity score (HCC1599 [16]) | drug sensitivity score (SK-BR-3) | drug sensitivity score (Hs578T [17]) | drug sensitivity score (CAL-148 [18]) | drug sensitivity score (CAL-85-1 [19]) | drug sensitivity score (MDA-MB-468 [20]) |
| --- | --- | --- | --- | --- | --- | --- | --- | --- | --- | --- | --- | --- | --- | --- | --- | --- | --- | --- | --- | --- | --- | --- | --- | --- | --- | --- |
| Nc1nccc(-c2c(-c3ccc(F)cc3)ncn2C2CCCCC2)n1 | 0.568 | 0.945 | 0 | 0.055 | 0 | 0 | 0 | 0.373 | 0 | 0 | 0 | 0 | 0.583 | 5.85 | 0 |  |  |  |  |  |  |  |  |  |  |  |
| C[C@@H]1CCN(C(=O)CC#N)C[C@@H]1N(C)c1ncnc2[nH]ccc12 [Tofacitinib] | 0 | 0 | 0 | 5 | 0 | 0 | 0 | 0 | 0 | 0 | 0 | 0 | 0 | 0 | 0 |  |  |  |  |  |  |  |  |  |  |  |
| CC(C)C[C@H](NC(=O)[C@H](Cc1ccccc1)NC(=O)c1cnccn1)B(O)O [Bortezomib] | 16.8 | 9.83 | 27.1 | 18.3 | 17.5 | 22.6 | 19.9 | 24.4 | 19.3 | 9.67 | 22.8 | 14.4 | 28.4 | 30.9 | 26 | 22.7 | 22.5 | 20.9 | 27.7 | 26.4 | 7.18 | 25.5 | 19.7 | 17.9 | 24.8 | 29.8 |
| COc1cccc2c1C(=O)c1c(O)c3c(c(O)c1C2=O)C[C@@](O)(C(C)=O)C[C@@H]3O[C@H]1C[C@H](N)[C@H](O)[C@H](C)O1 [Daunorubicin] | 3.7 | 2.11 | 1.59 | 12 | 7.7 | 3.57 | 4.35 | 7.33 | 3.23 | 2.8 | 4.81 | 10 | 4.68 | 10.7 | 6.85 | 3.7 | 2.14 | 14 | 5.31 | 13.1 | 1.88 | 13.1 | 9.16 | 13 | 5.47 | 11.1 |
| Cn1c(=O)c(F)c(Nc2ccc(I)cc2F)c2c(=O)n(C[C@@H](O)CO)cnc21 [TAK-733] | 0 | 18.5 | 0.644 | 8.36 | 25.4 | 10.1 | 4.39 | 6.85 | 0 | 0 | 0 | 0 | 6.4 | 3.59 | 1.27 | 3.27 | 5.03 | 29.3 | 3.87 | 4.61 | 0 | 0 | 1.73 | 0 | 7.69 | 0 |
| COC(=O)C[C@](O)(CCCC(C)(C)O)C(=O)O[C@@H]1C(OC)=C[C@]23CCCN2CCc2cc4c(cc2[C@H]13)OCO4 [Omacetaxine] | 16.8 | 22.1 | 22.1 | 27.1 | 30.6 | 23.1 | 19 | 16.7 | 22.4 | 26.7 | 26 | 19.9 | 29.6 | 27.4 | 27 | 28.2 | 26.3 | 38.1 | 30.7 | 28.6 | 24.8 | 28.3 | 28.8 | 31.6 | 31.8 | 28.5 |
| C#Cc1cccc(Nc2ncnc3cc(OC)c(OCCCCCCC(=O)NO)cc23)c1 [CUDC-101] | 21.1 | 17.5 | 15 | 12.7 | 9.19 | 7.15 | 5.5 | 7.85 | 11.1 | 11.4 | 8.01 | 10.1 | 19.7 | 18.1 | 6.33 | 19.9 | 15.6 | 10.6 | 14.7 | 11.8 | 15.3 | 18.6 | 15.6 | 12.2 | 15 | 18 |
| Cc1cc(C(C)Nc2ccccc2)c2nc(N3CCOCC3)cc(=O)n2c1 (configuration not stated) [TGX-221] | 0 | 0 | 0 | 10.7 | 0 | 0.256 | 0.0447 | 3.45 | 0 | 0 | 0 | 0 | 0 | 4.69 | 0 |  |  |  |  |  |  |  |  |  |  |  |
| CC(=O)O[C@H]1C(=O)[C@@]2(C)[C@H]([C@H](OC(=O)c3ccccc3)[C@]3(O)C[C@H](OC(=O)[C@H](O)[C@@H](NC(=O)c4ccccc4)c4ccccc4)C(C)=C1C3(C)C)[C@]1(OC(C)=O)CO[C@@H]1C[C@@H]2O [Paclitaxel] | 9.73 | 19.8 | 16.5 | 18.9 | 10.4 | 11.5 | 13.2 | 17.2 | 20.9 | 14.2 | 23.7 | 18.3 | 22.8 | 23.5 | 21.1 | 22.2 | 15 | 18.3 | 20.9 | 22.2 | 3.04 | 26.6 | 24.4 | 21.9 | 18.3 | 16.4 |
| CN(c1ccccc1CNc1nc(Nc2ccc3c(c2)CC(=O)N3)ncc1C(F)(F)F)S(C)(=O)=O | 0 | 9.21 | 2.28 | 10.6 | 7.61 | 7.23 | 4.65 | 7.07 | 4.97 | 3.99 | 4.29 | 1.24 | 6.85 | 8.4 | 2.86 |  |  |  |  |  |  |  |  |  |  |  |
| CS(=O)(=O)CCNCc1ccc(-c2ccc3ncnc(Nc4ccc(OCc5cccc(F)c5)c(Cl)c4)c3c2)o1 [Lapatinib] | 1.41 | 4.31 | 0 | 0 | 0 | 2.38 | 0 | 0 | 0 | 0 | 0 | 0 | 1.7 | 0 | 0 | 17.8 and 17 |  | 0 | 0 |  |  | 25.7 and 24.2 | 3.66 and 4.18 | 3.64 and 1.81 | 6.56 and 6.25 | 8.9 and 8.18 |
| FC(F)c1nc2ccccc2n1-c1nc(N2CCOCC2)nc(N2CCOCC2)n1 [ZSTK474] | 12.9 | 10.9 | 9.3 | 11.6 | 1.87 | 10.8 | 7.92 | 6.3 | 6.07 | 2.33 | 11.3 | 6.71 | 10.4 | 8.61 | 9.24 |  |  |  |  |  |  |  |  |  |  |  |
| c1ccc(C2CN3CCSC3=N2)cc1 (configuration not stated) [Tetramisole] |  |  |  |  |  |  |  |  |  |  |  |  |  |  |  | 0 | 0 | 0 | 0 | 0 | 0 | 0 | 0 | 0 | 0 | 0 |
| O=P(O)(NCCCl)NCCCl [Ifosfamide mustard] |  |  |  |  |  |  |  |  |  |  |  |  |  |  |  | 0 | 0 | 0 | 0 | 0 | 0 | 0 | 0 | 0 | 0 | 0 |
| COc1cc(Nc2ncc(F)c(Nc3ccc4c(n3)NC(=O)C(C)(C)O4)n2)cc(OC)c1OC [Tamatinib] | 0 | 0 | 0 | 2.11 | 0 | 0 | 0 | 0 | 0 | 0 | 0 | 0 | 0 | 0 | 0 |  |  |  |  |  |  |  |  |  |  |  |
| COc1cc(Nc2ncc(F)c(Nc3ccc4c(n3)NC(=O)C(C)(C)O4)n2)cc(OC)c1OC [R406] |  |  |  |  |  |  |  |  |  |  |  |  |  |  |  | 0 | 0 | 0 | 0 | 0 | 0 | 0 | 0 | 0 | 0 | 0 |
